Reference: patent US5407932A, “Quinolone derivatives and antibacterial agents containing the same” (Wakunaga Seiyaku Kabushiki Kaisha, priority 1989, dated 1995)
Values after ≈ are worked out from the molar mass of the structure shown.

What was measured:
mice = assay: Interaction with fenbufen and toxicological study (coadministration test with fenbufen); format: in vivo; settings: mouse, in vivo
Method: Fenbufen and the quinolone compounds were each diluted with a solution of 0.5% methylcellulose.
A dose of 200 mg/kg of fenbufen was administered by oral route to groups of 10 mice (female, ICR, 18-23 g) 90 minutes before administration of the quinolone compounds by oral route, at a dose of 500 mg/kg. […] Following the 24 hours number of survival animals was noted.

[1] = Partition coefficient, phosphate buffer/n-octanol; format: physicochemical; settings: n-octanol/50 mm phosphate buffer; 50 mM phosphate buffer (pH 7.4, μ=0.15)/n-octanol
Method: Following the method proposed by Akira Tsuji et al. in Antimicrob. Agents Chemother., 32, 190-194 (1988), 50 mM phosphate buffer (pH 7.4, μ=0.15)/n-octanol partition coefficients were measured.

P. aeruginosa (IFO 3445) = assay: Minimum inhibitory concentration, standard method of the Japan Society of Chemotherapy; format: cell-based; settings: Pseudomonas aeruginosa, IFO3445
Method: (§1) With respect to certain representative compounds among the compounds [I] of the present invention, their minimum inhibitory concentrations (MIC; μg/ml) were measured in accordance with the standard method established by the Japan Society of Chemotherapy [CHEMOTHERAPY, 29(1), 76-79 (1981)]. The results are summarized in Table 1, in which the compound numbers are as shown in examples.

[2] = tested on: S. aureus 209 P (IFO 12732); assay: as above; format: cell-based; settings: Staphylococcus aureus, IFO12732
Method: as §1

[3] = tested on: E. coli NIH JC-2 (IFO 12734); assay: as above; format: cell-based; settings: Escherichia coli, IFO12734
Method: as §1

| MIC (P. aeruginosa (IFO 3445)) [µg/mL] | MIC [2] [µg/mL] | MIC [3] [µg/mL] | SMILES | Induction of convulsion, number of positive mice (mice) | Mortality, number of dead mice (mice) | logD [1] |
| --- | --- | --- | --- | --- | --- | --- |
|  |  |  | CCn1cc(C(=O)O)c(=O)c2cc(F)c(N3CCNCC3)nc21 [Enoxacin, enoxacin, reference compound] | 10/10 | 10/10 |  |
|  |  |  | C[C@H]1CN(c2c(F)c(N)c3c(=O)c(C(=O)O)cn(C4COC4)c3c2F)C[C@H]1N (single isomer, unassigned) [Compound 113, 5-Amino-7-{(-)-cis-3-amino-4-methylpyrrolidin-1-yl}-6,8-difluoro-1-(oxetan-3-yl)-1,4-dihydro-4-oxoquinoline-3-carboxylic acid] |  |  | -0.529 |
| 1.56 (≈ 4.11 µM) | 1.56 (≈ 4.11 µM) | 0.2 (≈ 0.527 µM) | CC1CN(c2c(F)cc3c(=O)c(C(=O)O)cn(C4COC4)c3c2F)CCN1 (stereo not drawn) [Compound 13] |  |  |  |
| 12.5 (≈ 30.8 µM) | 0.78 (≈ 1.92 µM) | 1.56 (≈ 3.85 µM) | CCNC1CCN(c2c(F)cc3c(=O)c(C(=O)O)cn(C4COC4)c3c2OC)C1 (stereo not drawn) [Compound 82] |  |  |  |
| 1.56 (≈ 4.31 µM) | 3.13 (≈ 8.64 µM) | 0.39 (≈ 1.08 µM) | CN1CCN(c2nc3c(cc2F)c(=O)c(C(=O)O)cn3C2COC2)CC1 [Compound 61, 6-Fluoro-7-(4-methylpiperazin-1-yl)-1-(oxetan-3-yl)-1,4-dihydro-4-oxo-1,8-naphthylidine-3-carboxylic acid] |  |  |  |
| 3.13 (≈ 8.21 µM) | 0.39 (≈ 1.02 µM) | 0.39 (≈ 1.02 µM) | Nc1c(F)c(N2CCC(O)C2)c(F)c2c1c(=O)c(C(=O)O)cn2C1COC1 (stereo not drawn) [Compound 59] |  |  |  |
| 6.25 (≈ 16.6 µM) | 1.56 (≈ 4.16 µM) | 0.39 (≈ 1.04 µM) | CN(C)C1CCN(c2cc3c(cc2F)c(=O)c(C(=O)O)cn3C2COC2)C1 (stereo not drawn) [Compound 39] |  |  |  |
| 3.13 (≈ 8.32 µM) | 3.13 (≈ 8.32 µM) | 0.39 (≈ 1.04 µM) | CN(C)C1CCN(c2nc3c(cc2F)c(=O)c(C(=O)O)cn3C2COC2)C1 (stereo not drawn) [Compound 66] |  |  |  |
| 3.13 (≈ 7.92 µM) | 1.56 (≈ 3.95 µM) | 0.78 (≈ 1.97 µM) | CO[C@H]1CN(c2c(F)cc3c(=O)c(C(=O)O)cn(C4COC4)c3c2F)C[C@H]1N (relative stereo) [Compound 89] |  |  |  |
| 6.25 (≈ 17.7 µM) | 3.13 (≈ 8.88 µM) | 0.78 (≈ 2.21 µM) | O=C(O)c1cn(C2COC2)c2c(F)c(N3CC(O)C3)c(F)cc2c1=O [Compound 17] |  |  |  |
| 6.25 (≈ 16 µM) | 0.78 (≈ 2 µM) | 0.39 (≈ 1 µM) | CN(C)CC1CCN(c2cc3c(cc2F)c(=O)c(C(=O)O)cn3C2COC2)C1 (stereo not drawn) [Compound 40] |  |  |  |
| 6.25 (≈ 16.4 µM) | 0.39 (≈ 1.02 µM) | 0.78 (≈ 2.05 µM) | Nc1c(F)c(N2CCOCC2)c(F)c2c1c(=O)c(C(=O)O)cn2C1COC1 [Compound 58] |  |  |  |
| 1.56 (≈ 4.11 µM) | 1.56 (≈ 4.11 µM) | 0.2 (≈ 0.527 µM) | CN1CCN(c2c(F)cc3c(=O)c(C(=O)O)cn(C4COC4)c3c2F)CC1 [Compound 11] |  |  |  |
| 3.13 (≈ 8.27 µM) | 6.25 (≈ 16.5 µM) | 0.78 (≈ 2.06 µM) | CO[C@@H]1CN(c2nc3c(cc2F)c(=O)c(C(=O)O)cn3C2COC2)C[C@H]1N (relative stereo) [Compound 88] |  |  |  |
| 0.39 (≈ 1.12 µM) | 1.56 (≈ 4.48 µM) | 0.2 (≈ 0.574 µM) | NC1CCN(c2nc3c(cc2F)c(=O)c(C(=O)O)cn3C2COC2)C1 (stereo not drawn) [Compound 65] |  |  |  |
| 1.56 (≈ 3.96 µM) | 0.78 (≈ 1.98 µM) | 0.39 (≈ 0.989 µM) | CNC1CCN(c2c(F)c(N)c3c(=O)c(C(=O)O)cn(C4COC4)c3c2F)C1 (stereo not drawn) [Compound 50] |  |  |  |
| 0.78 (≈ 2.05 µM) | 0.39 (≈ 1.03 µM) | 0.2 (≈ 0.526 µM) | Nc1c(F)c(N2CCC(N)C2)c(F)c2c1c(=O)c(C(=O)O)cn2C1COC1 (stereo not drawn) [Compound 31] |  |  |  |
| 3.13 (≈ 7.96 µM) | 0.1 (≈ 0.254 µM) | 0.78 (≈ 1.98 µM) | CNCC1CCN(c2c(F)cc3c(=O)c(C(=O)O)cn(C4COC4)c3c2F)C1 (stereo not drawn) [Compound 46] |  |  |  |

| SMILES | MIC (P. aeruginosa (IFO 3445)) [µg/mL] | MIC [2] [µg/mL] | MIC [3] [µg/mL] | Induction of convulsion, number of positive mice (mice) | Mortality, number of dead mice (mice) | logD [1] |
| --- | --- | --- | --- | --- | --- | --- |
| Nc1c(F)c(N2CCNCC2)c(F)c2c1c(=O)c(C(=O)O)cn2C1COC1 [Compound 55] | 0.78 (≈ 2.05 µM) | 0.78 (≈ 2.05 µM) | 0.39 (≈ 1.03 µM) |  |  |  |
